US20160002204A1 (Board of Regents, The University of Texas System, priority 2014, published 2016)

What was measured:
[1] = system: A549 cells; test: A549 proliferation (viability) assay, Cell Titer Fluor, 72 hours; assay type: cell-based; settings: Homo sapiens
Method in brief: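 Seed A549 at 1000 cells/well and culture 24 h. Add compound (final DMSO 0.5%) and incubate 72 h at 37 °C. Add Cell Titer Fluor, mix 15 min, incubate 30 min, read fluorescence and fit EC50 by four-parameter logistic.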

[2] = target: T1, GLS1 (purified recombinant human GAC) (Homo sapiens, UniProt O94925); test: GLS1 enzymatic activity assay (dual-coupled, Amplex UltraRed/resorufin); assay type: biochemical
T1 sequence (O94925 55-598 isoform O94925-3 limits assumed): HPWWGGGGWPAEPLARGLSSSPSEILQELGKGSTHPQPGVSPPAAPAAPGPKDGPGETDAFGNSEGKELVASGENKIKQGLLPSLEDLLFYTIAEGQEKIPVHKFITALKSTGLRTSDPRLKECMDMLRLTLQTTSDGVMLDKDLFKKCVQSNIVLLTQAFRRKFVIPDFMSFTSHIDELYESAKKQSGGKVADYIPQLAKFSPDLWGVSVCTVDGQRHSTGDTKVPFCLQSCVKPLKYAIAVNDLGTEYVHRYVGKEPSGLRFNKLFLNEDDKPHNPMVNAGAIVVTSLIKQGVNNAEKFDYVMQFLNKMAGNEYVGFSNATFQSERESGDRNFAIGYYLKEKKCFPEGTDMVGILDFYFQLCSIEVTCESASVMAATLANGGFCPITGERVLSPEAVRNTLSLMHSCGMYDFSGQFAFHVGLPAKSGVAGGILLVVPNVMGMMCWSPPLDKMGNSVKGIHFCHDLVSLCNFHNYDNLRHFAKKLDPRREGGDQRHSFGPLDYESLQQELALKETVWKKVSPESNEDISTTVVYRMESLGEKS
Method in brief: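 Recombinant human GAC (2 nM) preincubated with 50 mM potassium phosphate, then inhibitor (10 min each, RT); 1 mM glutamine, pH 7.4 Hepes buffer, 1% DMSO. Glutamate coupled via glutamate oxidase/HRP to resorufin (Ex 530/Em 590), kinetic or 20-min endpoint; IC50 by four-parameter logistic fit.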

Row | Structure (SMILES) | EC50 [1] [nM] | IC50 [2] [nM]
1 | O=C(CN1CCCC1)Nc1ccn(CCC(F)Cn2cc(C(=O)NCc3cccc(OC(F)(F)F)c3)nn2)c(=O)c1F (centres unmarked) [Example 293, 1-(2-fluoro-4-{3-fluoro-2-oxo-4-[2-(pyrrolidin-1-yl)acetamido]-1,2-dihydropyridin-1-yl}butyl)-N-{[3-(trifluoromethoxy)phenyl]methyl}-1H-1,2,3-triazole-4-carboxamide] | 100 to 500 | < 100
2 | Cc1ccc(CNC(=O)c2cn(CC(F)CCn3ccc(NC(=O)OC(C)(C)C)c(F)c3=O)nn2)cn1 (centres unmarked) [Example 298, tert-butyl N-{3-fluoro-1-[3-fluoro-4-(4-{[(6-methylpyridin-3-yl)methyl]carbamoyl}-1H-1,2,3-triazol-1-yl)butyl]-2-oxo-1,2-dihydropyridin-4-yl}carbamate] | 500 to 5000 | 100 to 500
3 | O=C(CC1CCNCC1)Nc1ccn(CCC(F)Cn2cc(C(=O)NCc3cccc(OC(F)(F)F)c3)nn2)c(=O)c1F (centres unmarked) [Example 299, 1-(2-fluoro-4-{3-fluoro-2-oxo-4-[2-(piperidin-4-yl)acetamido]-1,2-dihydropyridin-1-yl}butyl)-N-{[3-(trifluoromethoxy)phenyl]methyl}-1H-1,2,3-triazole-4-carboxamide] | 500 to 5000 | 100 to 500
4 | O=C(CC1CCN(C(=O)CC(F)(F)F)CC1)Nc1ccn(CCC(F)Cn2cc(C(=O)NCc3cccc(OC(F)(F)F)c3)nn2)c(=O)c1F (centres unmarked) [Example 301, 1-[2-fluoro-4-(3-fluoro-2-oxo-4-{2-[1-(3,3,3-trifluoropropanoyl)piperidin-4-yl]acetamido}-1,2-dihydropyridin-1-yl)butyl]-N-{[3-(trifluoromethoxy)phenyl]methyl}-1H-1,2,3-triazole-4-carboxamide] | < 100 | < 100
5 | CS(=O)(=O)N1CCC(CC(=O)Nc2ccn(CCC(F)Cn3cc(C(=O)NCc4cccc(OC(F)(F)F)c4)nn3)c(=O)c2F)CC1 (centres unmarked) [Example 302, 1-(2-fluoro-4-{3-fluoro-4-[2-(1-methanesulfonylpiperidin-4-yl)acetamido]-2-oxo-1,2-dihydropyridin-1-yl}butyl)-N-{[3-(trifluoromethoxy)phenyl]methyl}-1H-1,2,3-triazole-4-carboxamide] | 100 to 500 | < 100
6 | Cc1ccc(CNC(=O)c2cn(CC(F)CCn3ccc(NC(=O)CC4CCCC4)c(F)c3=O)nn2)cn1 (centres unmarked) [Example 303, 1-{4-[4-(2-cyclopentylacetamido)-3-fluoro-2-oxo-1,2-dihydropyridin-1-yl]-2-fluorobutyl}-N-[(6-methylpyridin-3-yl)methyl]-1H-1,2,3-triazole-4-carboxamide] | < 100 | < 100
7 | Cc1ccc(CNC(=O)c2cn(CC(F)CCn3ccc(NC(=O)CC4CCC4)c(F)c3=O)nn2)cn1 (centres unmarked) [Example 304, 1-(4-(4-(2-cyclobutylacetamido)-3-fluoro-2-oxopyridin-1(2H)-yl)-2-fluorobutyl)-N-((6-methylpyridin-3-yl)methyl)-1H-1,2,3-triazole-4-carboxamide] | < 100 | < 100
8 | CC(=O)OC(C(=O)Nc1ccn(CC[C@H](F)Cn2cc(C(=O)NCc3cccc(OC(F)(F)F)c3)nn2)c(=O)c1F)c1ccccc1 (stereo partly drawn) [Example 305, (S)-[(3-fluoro-1-{3-fluoro-4-[4-({[3-(trifluoromethoxy)phenyl]methyl}carbamoyl)-1H-1,2,3-triazol-1-yl]butyl}-2-oxo-1,2-dihydropyridin-4-yl)carbamoyl](phenyl)methyl acetate] | < 100 | < 100
9 | Cc1ccc(CNC(=O)c2cn(CC(F)CCn3ccc(NC(=O)Cc4ccccc4)c(F)c3=O)nn2)cn1 (centres unmarked) [Example 307, 1-{2-fluoro-4-[3-fluoro-2-oxo-4-(2-phenylacetamido)-1,2-dihydropyridin-1-yl]butyl}-N-[(6-methylpyridin-3-yl)methyl]-1H-1,2,3-triazole-4-carboxamide] | 100 to 500 | < 100
10 | O=C(CN1CCN(C(=O)CC(F)(F)F)CC1)Nc1ccn(CCC(F)Cn2cc(C(=O)NCc3cccc(OC(F)(F)F)c3)nn2)c(=O)c1F (centres unmarked) [Example 308, 1-[2-fluoro-4-(3-fluoro-2-oxo-4-{2-[4-(3,3,3-trifluoropropanoyl)piperazin-1-yl]acetamido}-1,2-dihydropyridin-1-yl)butyl]-N-{[3-(trifluoromethoxy)phenyl]methyl}-1H-1,2,3-triazole-4-carboxamide] | 100 to 500 | < 100

More lines, now with the values ahead:

Row | EC50 [1] [nM] | IC50 [2] [nM] | Structure (SMILES)
11 | < 100 | < 100 | CCOC(=O)N1CCN(CC(=O)Nc2ccn(CCC(F)Cn3cc(C(=O)NCc4cccc(OC(F)(F)F)c4)nn3)c(=O)c2F)CC1 (centres unmarked) [Example 292, ethyl 4-{[(3-fluoro-1-{3-fluoro-4-[4-({[3-(trifluoro-methoxy)phenyl]methyl}carbamoyl)-1H-1,2,3-triazol-1-yl]butyl}-2-oxo-1,2-dihydropyridin-4-yl)carbamoyl]methyl}piperazine-1-carboxylate]
12 | < 100 | < 100 | CC1(C)CN(CC(=O)Nc2ccn(CCC(F)Cn3cc(C(=O)NCc4cccc(OC(F)(F)F)c4)nn3)c(=O)c2F)CCO1 (centres unmarked) [Example 294, 1-(4-{4-[2-(2,2-dimethylmorpholin-4-yl)acetamido]-3-fluoro-2-oxo-1,2-dihydropyridin-1-yl}-2-fluorobutyl)-N-{[3-(trifluoromethoxy)phenyl]methyl}-1H-1,2,3-triazole-4-carboxamide]
13 | < 100 | < 100 | O=C(CN1CCCC(F)(F)C1)Nc1ccn(CCC(F)Cn2cc(C(=O)NCc3cccc(OC(F)(F)F)c3)nn2)c(=O)c1F (centres unmarked) [Example 295, 1-(4-{4-[2-(3,3-difluoropiperidin-1-yl)acetamido]-3-fluoro-2-oxo-1,2-dihydropyridin-1-yl}-2-fluorobutyl)-N-{[3-(trifluoromethoxy)phenyl]methyl}-1H-1,2,3-triazole-4-carboxamide]
14 | < 100 | < 100 | CC(C)(C)OC(=O)N1CCN(CC(=O)Nc2ccn(CCC(F)Cn3cc(C(=O)NCc4cccc(OC(F)(F)F)c4)nn3)c(=O)c2F)CC1 (centres unmarked) [Example 296, tert-butyl 4-{[(3-fluoro-1-{3-fluoro-4-[4-({[3-(trifluoro-methoxy)phenyl]methyl}carbamoyl)-1H-1,2,3-triazol-1-yl]butyl}-2-oxo-1,2-dihydropyridin-4-yl)carbamoyl]methyl}piperazine-1-carboxylate]
15 | < 100 | < 100 | CC(C)(C)OC(=O)N1CC2(CN(CC(=O)Nc3ccn(CCC(F)Cn4cc(C(=O)NCc5cccc(OC(F)(F)F)c5)nn4)c(=O)c3F)C2)C1 (centres unmarked) [Example 297, tert-butyl 6-{[(3-fluoro-1-{3-fluoro-4-[4-({[3-(trifluoro-methoxy)phenyl]methyl}carbamoyl)-1H-1,2,3-triazol-1-yl]butyl}-2-oxo-1,2-dihydropyridin-4-yl)carbamoyl]methyl}-2,6-diazaspiro[3.3]heptane-2-carboxylate]
16 | < 100 | < 100 | CCOC(=O)N1CCC(CC(=O)Nc2ccn(CCC(F)Cn3cc(C(=O)NCc4cccc(OC(F)(F)F)c4)nn3)c(=O)c2F)CC1 (centres unmarked) [Example 300, ethyl 4-{[(3-fluoro-1-{3-fluoro-4-[4-({[3-(trifluoro-methoxy)phenyl]methyl}carbamoyl)-1H-1,2,3-triazol-1-yl]butyl}-2-oxo-1,2-dihydropyridin-4-yl)carbamoyl]methyl}piperidine-1-carboxylate]
